Test in all cases: relative viability (nuclei count vs DMSO), 5 days (fraction); higher = more cells survive
Compound in assay [1]: C=CCNC1=C2C[C@@H](C)C[C@H](OC)[C@H](O)[C@@H](C)/C=C(\C)[C@H](OC(N)=O)[C@@H](OC)/C=C\C=C(/C)C(=O)NC(=CC1=O)C2=O [17-AAG] + CC(=O)Nc1cccc(-n2c(=O)n(C3CC3)c(=O)c3c(Nc4ccc(I)cc4F)n(C)c(=O)c(C)c32)c1 [Trametinib] (partner 0.02 µM)
In short, it runs like this:
(§1)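 Relative viability equals treated-well nuclei counts divided by vehicle-well nuclei counts. Counts came from 4× images of lung cancer cell lines grown in 1536-well plates for 5 days after pin-tool dosing on the day after seeding. Dosing used one drug alone or a fixed anchor-drug dose plus five library-drug doses (not always all listed) in √10 steps, and values are medians of duplicate plates.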

Compound in assay [2]: C=CCNC1=C2C[C@@H](C)C[C@H](OC)[C@H](O)[C@@H](C)/C=C(\C)[C@H](OC(N)=O)[C@@H](OC)/C=C\C=C(/C)C(=O)NC(=CC1=O)C2=O [17-AAG] + CC1(C)CCC(c2ccc(Cl)cc2)=C(CN2CCN(c3ccc(C(=O)NS(=O)(=O)c4ccc(N[C@H](CCN5CCOCC5)CSc5ccccc5)c(S(=O)(=O)C(F)(F)F)c4)cc3)CC2)C1 [Navitoclax] (partner 0.5 µM)
In short, it runs like this:
as §1

Compound in assay [3]: C=CCNC1=C2C[C@@H](C)C[C@H](OC)[C@H](O)[C@@H](C)/C=C(\C)[C@H](OC(N)=O)[C@@H](OC)/C=C\C=C(/C)C(=O)NC(=CC1=O)C2=O [17-AAG] + N=C(N)NC(=N)NCCc1ccccc1 [Phenformin] (partner 250 µM)
Summed up:
as §1

Compound in assay [4]: C=CCNC1=C2C[C@@H](C)C[C@H](OC)[C@H](O)[C@@H](C)/C=C(\C)[C@H](OC(N)=O)[C@@H](OC)/C=C\C=C(/C)C(=O)NC(=CC1=O)C2=O [17-AAG] + Nc1nc2[nH]cc(CCc3ccc(C(=O)N[C@@H](CCC(=O)O)C(=O)O)cc3)c2c(=O)[nH]1 [Pemetrexed] (partner 0.2 µM)
In short, it runs like this: as §1

4 cell lines from the supplement of paper PMC10307832 can be followed below.

In the case of PC-3 [JPC-3], the relative viability is 0.681 in assay [1] (first compound 0.00128 µM); 0.711 in assay [1] (first compound 0.004048 µM); 0.68 in assay [1] (first compound 0.0128 µM); 0.472 in assay [1] (first compound 0.04048 µM); 0.551 in assay [1] (first compound 0.128 µM); 0.794 in assay [2] (first compound 0.00128 µM). The relative viability worked out at 0.82 in assay [2] (first compound 0.004048 µM); 0.835 in assay [2] (first compound 0.0128 µM); 0.793 in assay [2] (first compound 0.128 µM); 0.481 in assay [3] (first compound 0.00128 µM); 0.472 in assay [3] (first compound 0.004048 µM); 0.485 in assay [3] (first compound 0.0128 µM). Also, the relative viability was determined as 0.468 in assay [3] (first compound 0.128 µM); 1.23 in assay [4] (first compound 0.00128 µM); 1.12 in assay [4] (first compound 0.004048 µM); 1.18 in assay [4] (first compound 0.0128 µM); 0.491 in assay [4] (first compound 0.04048 µM); 0.85 in assay [4] (first compound 0.128 µM).
LK-2: the relative viability amounted to 0.85 in assay [1] (first compound 0.00128 µM); 0.846 in assay [1] (first compound 0.004048 µM); 0.789 in assay [1] (first compound 0.0128 µM); 0.577 in assay [1] (first compound 0.04048 µM); 0.184 in assay [1] (first compound 0.128 µM); 1.11 in assay [2] (first compound 0.00128 µM). Also, the relative viability in assay [2] (first compound 0.004048 µM) worked out at 0.97; in assay [2] (first compound 0.0128 µM), 0.619; in assay [2] (first compound 0.04048 µM), 0.285; in assay [2] (first compound 0.128 µM), 0.171; in assay [3] (first compound 0.00128 µM), 0.462; in assay [3] (first compound 0.004048 µM), 0.478. The relative viability in assay [3] (first compound 0.0128 µM) turned out to be 0.194; in assay [3] (first compound 0.04048 µM), 0.158; in assay [3] (first compound 0.128 µM), 0.135; in assay [4] (first compound 0.00128 µM) it was 0.266; in assay [4] (first compound 0.004048 µM) it was 0.292; in assay [4] (first compound 0.0128 µM), 0.211. The relative viability in assay [4] (first compound 0.04048 µM) is 0.101; in assay [4] (first compound 0.128 µM), 0.0875.
For COR-L23, the relative viability in assay [1] (first compound 0.00128 µM) was 0.664; in assay [1] (first compound 0.004048 µM), 0.504; in assay [1] (first compound 0.0128 µM), 0.438; in assay [1] (first compound 0.04048 µM), 0.158; in assay [1] (first compound 0.128 µM), 0.0809; in assay [2] (first compound 0.00128 µM) it was 1.07. The relative viability in assay [2] (first compound 0.004048 µM) was determined as 1.06; in assay [2] (first compound 0.0128 µM), 0.991; in assay [2] (first compound 0.04048 µM), 0.544; in assay [2] (first compound 0.128 µM), 0.0992; in assay [3] (first compound 0.00128 µM) it was 0.459; in assay [3] (first compound 0.004048 µM), 0.438. In addition, the relative viability in assay [3] (first compound 0.0128 µM) came to 0.419; in assay [3] (first compound 0.04048 µM) it was 0.269; in assay [3] (first compound 0.128 µM) it was 0.103; in assay [4] (first compound 0.00128 µM) it was 0.2; in assay [4] (first compound 0.004048 µM) it was 0.2; in assay [4] (first compound 0.0128 µM) it was 0.211. For the same cell line, the results for the relative viability in assay [4] (first compound 0.04048 µM) and in assay [4] (first compound 0.128 µM) were 0.225 and 0.157, respectively.
For the cell line NCI-H1944, the relative viability came out at 0.452 in assay [1] (first compound 0.00128 µM); 0.368 in assay [1] (first compound 0.004048 µM); 0.379 in assay [1] (first compound 0.0128 µM); 0.24 in assay [1] (first compound 0.04048 µM); 0.155 in assay [1] (first compound 0.128 µM); 1.05 in assay [2] (first compound 0.00128 µM). Besides, the relative viability came to 1.05 in assay [2] (first compound 0.004048 µM); 1.02 in assay [2] (first compound 0.0128 µM); 0.948 in assay [2] (first compound 0.04048 µM); 0.372 in assay [2] (first compound 0.128 µM); 0.187 in assay [3] (first compound 0.00128 µM); 0.194 in assay [3] (first compound 0.004048 µM). Further, the relative viability in assay [3] (first compound 0.0128 µM) was 0.127; in assay [3] (first compound 0.04048 µM), 0.12; in assay [3] (first compound 0.128 µM), 0.114; in assay [4] (first compound 0.00128 µM) it was 0.601; in assay [4] (first compound 0.004048 µM) it was 0.561; in assay [4] (first compound 0.0128 µM), 0.357. Further, the values for the relative viability in assay [4] (first compound 0.04048 µM) and in assay [4] (first compound 0.128 µM) were 0.266 and 0.131, respectively.
